# Data: US20020077352A1, “N-methyl-D-aspartate receptor antagonists” (priority 2000, published 2002)
# Where two headings read alike, the source gives them in different places.
# Tests used:
# [1] = tested on: NMDARs; assay: whole-cell patch clamp, NMDA-evoked currents in cultured mouse cortical neurons; assay type: cell-based
# Experimental: NMDA (200 μM) alone, NMDA plus aqueous Salvia miltiorrhiza extract (100 μl in 10 ml Hanks solution) and NMDA plus 20 nM tanshinone IIA were applied for about 3 seconds (black bars) in the continuous presence of glycine (10 μM) and absence of Mg^2+.
# The ordinate indicates the percent steady-state block of currents evoked by 200 μM NMDA plus 10 μM glycine in the absence of Mg^2+.
# NMDA (100 μM) or increasing concentrations of NMDA (100 μM-1600 μM) plus tanshinone IIA (20 nM) were applied for about 3 seconds (indicated by the black bars) in the continuous presence of glycine (10 μM) and absence of Mg^2+,
# I/V curves were constructed by subtracting the response in the presence of NMDA (200 μM) plus tanshinone from the control response during the application of NMDA alone for 2 seconds at membrane holding potentials from −60 mV to +60 mV. Data from 2 to 5 sweeps were averaged for each trace.
# (§1) The whole-cell patch clamp technique was used in mouse cortical neuronal cultures in order to screen for NMDAR antagonists in Danshen, the root of Salvia milthiorriza Bunge. […] Tanshinones are plant-derived diterpenoid quinones.
# The concentration dependence of the steady-state block of NMDA-induced currents was determined in order to obtain the dose/response curve of the NMDAR antagonist action of the tanshinones (FIG. 2). The data were fit according to a logistic equation and the concentration at which 50% of the NMDA-evoked response was blocked (IC50) was calculated from the equation.
# Concentration-response curves were obtained in the presence of a saturating dose of tanshinone and increasing amounts of NMDA in cultured mouse cortical neurons (FIG. 3a).
# The voltage-dependence of the inhibitory effects of the tanshinones was assessed by constructing current/voltage (I/V) plots in the presence or absence of the drugs (FIG. 3b).
# [2] = biological target: T1, recombinant NMDARs composed of NR1 and NR2D subunits (Homo sapiens, UniProt O15399+Q05586); assay: NMDA-induced current in transiently transfected HEK293 cells expressing recombinant NR1/NR2D NMDARs; assay type: cell-based; settings: for block of the NMDA-induced current, NR1/NR2D: 100 nM, co-application of NMDA and glycine, absence of Mg2+
# T1 construct: expressed in transfected cells; host or cells: HEK293, transiently transfected
# Excerpt: (§2) This example also compared the blocking efficacy of the tanshinones in transiently transfected human embryonic kidney (HEK) 293 cells expressing recombinant NMDARs containing either the NR1/NR2B or NR1/NR2D subunit combinations.
# [3] = tested on: central benzodiazepine receptors; settings: cited from earlier work
# [4] = tested on: AMPA receptors; assay: whole-cell patch clamp, currents activated by AMPA in mouse cultured cortical neurons; assay type: cell-based; settings: AMPA 10 μM; 100 nM compound
# Excerpt: as §1
# (§3) The present example examined whether tanshinones inhibited currents of AMPA and GABAA receptors evoked by AMPA or GABA, respectively.
# [5] = tested on: GABAA receptors; assay: whole-cell patch clamp, currents activated by GABA in cultured cortical neurons; assay type: cell-based, mouse; settings: GABA 20 μM; n=3
# Excerpt: as §1, §3
# [6] = biological target: T2, recombinant NMDARs composed of the NR1 and NR2B subunits (Homo sapiens, UniProt Q05586+Q13224); assay: NMDA-induced current in transiently transfected HEK293 cells expressing recombinant NR1/NR2B NMDARs; assay type: cell-based
# T2 construct: expressed in transfected cells; host or cells: HEK293, transiently transfected
# Excerpt: as §2
# [7] = 200 μM NMDA plus 10 μM glycine, absence of Mg2+; 95% confidence interval given in brackets; read-out: IC50, steady-state block of NMDA-induced currents
# [8] = I/V plots, holding potentials −60 mV to +60 mV
# [9] = purified tanshinones, patch-clamp assay (20 nM, FIG. 1d)
# T1 sequence (O15399 28-1336, other chains not shown): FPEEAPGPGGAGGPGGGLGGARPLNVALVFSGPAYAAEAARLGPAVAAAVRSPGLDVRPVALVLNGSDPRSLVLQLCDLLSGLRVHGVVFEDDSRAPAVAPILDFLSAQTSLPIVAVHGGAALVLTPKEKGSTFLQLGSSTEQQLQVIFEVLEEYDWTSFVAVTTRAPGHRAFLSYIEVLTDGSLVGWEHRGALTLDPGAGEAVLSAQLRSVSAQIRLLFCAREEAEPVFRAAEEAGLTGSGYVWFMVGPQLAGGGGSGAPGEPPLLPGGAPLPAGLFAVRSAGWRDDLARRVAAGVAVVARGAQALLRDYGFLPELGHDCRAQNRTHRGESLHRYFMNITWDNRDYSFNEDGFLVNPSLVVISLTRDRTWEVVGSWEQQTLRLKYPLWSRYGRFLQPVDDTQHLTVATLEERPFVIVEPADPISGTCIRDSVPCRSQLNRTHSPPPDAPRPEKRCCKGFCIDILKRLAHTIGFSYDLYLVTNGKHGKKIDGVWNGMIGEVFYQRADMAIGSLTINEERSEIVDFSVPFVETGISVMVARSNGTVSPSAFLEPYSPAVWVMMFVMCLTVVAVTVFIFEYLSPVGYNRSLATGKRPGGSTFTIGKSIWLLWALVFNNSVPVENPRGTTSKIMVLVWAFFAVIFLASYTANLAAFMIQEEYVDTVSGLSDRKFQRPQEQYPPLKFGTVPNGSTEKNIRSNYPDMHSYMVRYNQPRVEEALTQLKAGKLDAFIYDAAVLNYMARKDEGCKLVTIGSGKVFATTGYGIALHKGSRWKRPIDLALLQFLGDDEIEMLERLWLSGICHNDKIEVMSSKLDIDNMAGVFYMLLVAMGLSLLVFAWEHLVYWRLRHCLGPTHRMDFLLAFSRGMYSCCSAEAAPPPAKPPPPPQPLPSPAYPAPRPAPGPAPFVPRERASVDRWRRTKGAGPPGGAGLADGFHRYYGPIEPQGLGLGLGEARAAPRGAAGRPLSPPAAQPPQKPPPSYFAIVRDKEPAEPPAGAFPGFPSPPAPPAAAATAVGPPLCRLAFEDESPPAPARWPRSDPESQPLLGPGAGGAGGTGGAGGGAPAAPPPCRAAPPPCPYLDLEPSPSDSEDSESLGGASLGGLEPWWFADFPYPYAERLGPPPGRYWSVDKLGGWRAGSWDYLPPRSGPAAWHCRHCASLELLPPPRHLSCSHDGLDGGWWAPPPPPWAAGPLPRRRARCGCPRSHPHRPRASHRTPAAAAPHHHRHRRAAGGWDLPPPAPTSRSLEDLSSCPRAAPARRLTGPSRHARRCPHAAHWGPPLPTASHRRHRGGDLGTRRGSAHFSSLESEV
# T2 sequence (Q13224 27-1484, other chains not shown): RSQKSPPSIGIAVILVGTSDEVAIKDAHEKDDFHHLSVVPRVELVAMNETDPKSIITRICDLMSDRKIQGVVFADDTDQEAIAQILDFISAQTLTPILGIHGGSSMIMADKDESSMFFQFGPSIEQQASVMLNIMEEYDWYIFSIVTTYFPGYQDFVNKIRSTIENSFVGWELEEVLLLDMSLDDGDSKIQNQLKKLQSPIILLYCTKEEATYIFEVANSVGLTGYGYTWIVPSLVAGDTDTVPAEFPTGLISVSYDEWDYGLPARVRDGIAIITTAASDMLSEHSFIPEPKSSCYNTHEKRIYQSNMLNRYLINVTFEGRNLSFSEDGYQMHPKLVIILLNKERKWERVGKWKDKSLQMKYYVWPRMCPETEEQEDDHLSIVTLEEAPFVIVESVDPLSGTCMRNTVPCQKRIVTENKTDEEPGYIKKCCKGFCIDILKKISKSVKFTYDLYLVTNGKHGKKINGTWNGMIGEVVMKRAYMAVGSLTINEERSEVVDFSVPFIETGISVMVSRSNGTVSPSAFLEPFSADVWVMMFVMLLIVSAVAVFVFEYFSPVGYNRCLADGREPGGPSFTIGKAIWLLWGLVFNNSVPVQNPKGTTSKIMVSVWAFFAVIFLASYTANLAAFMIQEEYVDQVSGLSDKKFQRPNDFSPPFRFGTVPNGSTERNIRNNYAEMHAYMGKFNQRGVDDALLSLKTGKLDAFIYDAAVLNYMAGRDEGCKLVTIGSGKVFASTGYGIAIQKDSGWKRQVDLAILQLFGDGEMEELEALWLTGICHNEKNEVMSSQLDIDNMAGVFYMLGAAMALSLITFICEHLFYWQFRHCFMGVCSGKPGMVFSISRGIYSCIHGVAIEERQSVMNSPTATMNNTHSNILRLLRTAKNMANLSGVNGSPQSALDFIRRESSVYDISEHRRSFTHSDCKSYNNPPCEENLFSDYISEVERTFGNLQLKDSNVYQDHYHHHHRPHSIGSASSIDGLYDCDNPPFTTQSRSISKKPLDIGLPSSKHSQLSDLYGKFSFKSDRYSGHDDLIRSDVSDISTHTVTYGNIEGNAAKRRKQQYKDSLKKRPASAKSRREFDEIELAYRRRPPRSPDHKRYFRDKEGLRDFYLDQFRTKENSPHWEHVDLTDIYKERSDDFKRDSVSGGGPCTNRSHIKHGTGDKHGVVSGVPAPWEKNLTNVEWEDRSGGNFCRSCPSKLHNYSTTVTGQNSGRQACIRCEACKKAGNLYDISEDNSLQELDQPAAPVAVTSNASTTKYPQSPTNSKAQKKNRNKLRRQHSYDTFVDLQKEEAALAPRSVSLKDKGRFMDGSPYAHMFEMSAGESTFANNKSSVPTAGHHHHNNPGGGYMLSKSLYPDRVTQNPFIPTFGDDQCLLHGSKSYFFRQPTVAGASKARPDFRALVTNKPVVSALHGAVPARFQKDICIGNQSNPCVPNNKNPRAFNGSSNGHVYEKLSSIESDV
"block of the NMDA-induced current, NR1/NR2D [2]","IC50 [1, 7]","voltage-dependence of inhibition, NR2B containing receptors [6]","voltage-dependence of inhibition, NR2D containing receptors ([2]; greatly reduced efficacy at positive potentials)",SMILES,"IC50 ([1]; read-out: IC50, steady-state block of NMDA-induced currents; 200 μM NMDA plus 10 μM glycine, absence of Mg2+; 95% confidence interval given in brackets)","voltage-dependence of inhibition of NMDA-induced whole-cell currents [1, 8]","inhibition of the NMDA-induced currents [1, 9]",activity at central benzodiazepine receptors [3],"mode of inhibition with respect to agonist NMDA and co-agonist glycine ([1]; fixed saturating dose of tanshinone (20 nM), increasing NMDA 100-1600 μM)",inhibition of currents activated by AMPA [4],block of currents activated by GABA [5]
11±2%,2.1 nM,,,CC(C)C1=Cc2ccc3c(c2C(=O)C1=O)CCCC3(C)C [miltirone],,voltage-independent,"strong, but readily reversible inhibition",partial agonists,,,
61±11%,3.4 nM,voltage-independent,voltage-dependent,Cc1coc2c1C(=O)C(=O)c1c-2ccc2c1CCCC2(C)C [tanshinone IIA],,voltage-independent,"strong, but readily reversible inhibition",,non-competitive inhibition,6±3%,10±3%
52±11%,1.1 nM,,,Cc1coc2c1C(=O)C(=O)c1c-2ccc2c1CCCC2(C)CO (stereo not drawn) [tanshinone IIB],,voltage-independent,"strong, but readily reversible inhibition",,,,

SMILES,"block of the NMDA-induced current, NR1/NR2D [2]","IC50 [1, 7]","voltage-dependence of inhibition, NR2B containing receptors [6]","voltage-dependence of inhibition, NR2D containing receptors ([2]; greatly reduced efficacy at positive potentials)","IC50 ([1]; read-out: IC50, steady-state block of NMDA-induced currents; 200 μM NMDA plus 10 μM glycine, absence of Mg2+; 95% confidence interval given in brackets)","voltage-dependence of inhibition of NMDA-induced whole-cell currents [1, 8]","inhibition of the NMDA-induced currents [1, 9]",activity at central benzodiazepine receptors [3],"mode of inhibition with respect to agonist NMDA and co-agonist glycine ([1]; fixed saturating dose of tanshinone (20 nM), increasing NMDA 100-1600 μM)",inhibition of currents activated by AMPA [4],block of currents activated by GABA [5]
C[C@H]1COC2=C1C(=O)C(=O)c1c2ccc2c1CCCC2(C)C [cryptotanshinone],10±1%,,,,1.7 nM,,,,,,
Cc1coc2c1C(=O)C(=O)c1c-2ccc2c(C)cccc12 [tanshinone I],4±1%,3.7 nM,,,,voltage-independent,"strong, but readily reversible inhibition",,,,
